In patent publication US20180332878A1, “BITTER TASTE INHIBITOR” (NAGAOKA CO., LTD., priority 2017, published 2018):

Experiments:
Type in all cases: in vivo, human
[1] = Sensory evaluation, summary of Table 3; conditions: added to an extract of a crude drug having a bitter taste
[2] = Sensory evaluation, summary of Table 1; conditions: added to a food or beverage having a bitter taste; without deteriorating the influence of the food or beverage itself
Description: The beer (without addition of isobutyl angelate) was tasted by seven panelists (one twenty-something male, one thirty-something male, one forty-something male, one fifty-something male, one sixty-something male, and one twenty-something female and one thirty-something female). Subsequently, the seven panelists rinsed their mouths sufficiently, and then the beer having isobutyl angelate added thereto (with addition of isobutyl angelate) was tasted by the seven panelists. The panelists compared the isobutyl-angelate-free beer with the isobutyl-angelate-containing beer, and then determined whether or not the bitter taste in the isobutyl-angelate-containing beer was improved compared with the isobutyl-angelate-free beer in accordance with the following criteria. When the sum total of the scores determined by the seven panelists was 10 points or greater, it was determined that the bitter taste was improved.
1 point: although a bitter taste was sensed, the bitter taste was improved compared with the isobutyl-angelate-free beer; and
0 point: the bitter taste was not improved.

[3] = Sensory evaluation, summary of Table 2; conditions: added to an amino acid having a bitter taste

In the case of C/C=C(/C)C(=O)OCC(C)C [isobutyl angelate, Isobutyl angelate], the “Effect on bitter taste (summary of Table 3)” value [1] is reported as “a bitter taste derived from the crude drug is reduced”, the “Effect on bitter taste (summary of Table 1)” value [2] is reported as “the bitter taste is reduced” and the “Effect on bitter taste (summary of Table 2)” value [3] is reported as “the bitter taste derived from the amino acid is reduced”.
